Some results are limits rather than exact numbers.

From patent US20130165472A1, “HETEROARYLS AND USES THEREOF” (MILLENNIUM PHARMACEUTICALS, INC., priority 2011, published 2013) come the findings set out here.

The target of the assay is T1, VPS34 (Homo sapiens, UniProt Q8NEB9).
T1 construct: GST (N); host or cells: SF9 insect cells (baculovirus)
The experiment in a line: Human VPS34 enzyme assay (Adapta TR-FRET). The class given is biochemical. Conditions: for VPS34 Percent Inhibition: at a 1.11 μM concentration. As to the method: VPS34 (accession number GB:BC033004) was cloned into pDEST20-Thombin as N-terminal GST tagged fusion proteins using the Gateway system (Invitrogen, catalog#11804-013). The sequences were verified before recombinant protein expression using the Baculovirus Expression System with Gateway® Technology.
For expression VPS34 was infected at 1MOI in SF9 cells and harvested 72 hours post infection.
For purification, VPS34 is purified by Glutathione Sepharose 4 Fast Flow (GE Healthcare #17-5132-03) followed by HiTrap Q (GE Healthcare #17-1153-01).
Human VPS34 Enzyme Assay Method
100 mL compounds in DMSO are added to wells of a 384 well microtitre plate (Greiner 780076). At room temperature: 5 ul VPS34 reaction buffer (Invitrogen Assay Buffer Q (diluted 1 in 5 with nanopure water) plus 2 mM DTT and 2 mM MnCl2) containing ATP (20 uM, Promega) and 200 uM PI-PS substrate (Invitrogen PV5122) is added followed immediately by 5 ul VPS34 reaction buffer (as above) containing VPS34 (5 nM, Millennium Protein Sciences Group) and the mixture is incubated with shaking at room temperature for 1 hour. Then 5 ul VPS34 stop-detect mix (as per Invitrogen Adapta Assay kit (PV5009) instructions (contains kinase quench buffer, TR-FRET buffer, Adapta Eu anti-ADP antibody and Alexa Fluor 647 ADP tracer)) is added to quench the reaction. The plates are then incubated for 30 minutes at room temperature with shaking and then read on a BMG PheraStar Plus reader.
For the assay methods described above, test compound percent inhibition, at various concentrations, is calculated relative to control (DMSO and EDTA) treated samples. Compound concentration versus percent inhibition curves are fitted to generate IC50 values. One skilled in the art will appreciate that the values generated either as percentage inhibition at a single concentration or IC50 values are subject to experimental variation.
3) VPS34 is assayed using Adapta™ Universal Kinase Assay Kit (Invitrogen).

T1 sequence (Q8NEB9 whole entry): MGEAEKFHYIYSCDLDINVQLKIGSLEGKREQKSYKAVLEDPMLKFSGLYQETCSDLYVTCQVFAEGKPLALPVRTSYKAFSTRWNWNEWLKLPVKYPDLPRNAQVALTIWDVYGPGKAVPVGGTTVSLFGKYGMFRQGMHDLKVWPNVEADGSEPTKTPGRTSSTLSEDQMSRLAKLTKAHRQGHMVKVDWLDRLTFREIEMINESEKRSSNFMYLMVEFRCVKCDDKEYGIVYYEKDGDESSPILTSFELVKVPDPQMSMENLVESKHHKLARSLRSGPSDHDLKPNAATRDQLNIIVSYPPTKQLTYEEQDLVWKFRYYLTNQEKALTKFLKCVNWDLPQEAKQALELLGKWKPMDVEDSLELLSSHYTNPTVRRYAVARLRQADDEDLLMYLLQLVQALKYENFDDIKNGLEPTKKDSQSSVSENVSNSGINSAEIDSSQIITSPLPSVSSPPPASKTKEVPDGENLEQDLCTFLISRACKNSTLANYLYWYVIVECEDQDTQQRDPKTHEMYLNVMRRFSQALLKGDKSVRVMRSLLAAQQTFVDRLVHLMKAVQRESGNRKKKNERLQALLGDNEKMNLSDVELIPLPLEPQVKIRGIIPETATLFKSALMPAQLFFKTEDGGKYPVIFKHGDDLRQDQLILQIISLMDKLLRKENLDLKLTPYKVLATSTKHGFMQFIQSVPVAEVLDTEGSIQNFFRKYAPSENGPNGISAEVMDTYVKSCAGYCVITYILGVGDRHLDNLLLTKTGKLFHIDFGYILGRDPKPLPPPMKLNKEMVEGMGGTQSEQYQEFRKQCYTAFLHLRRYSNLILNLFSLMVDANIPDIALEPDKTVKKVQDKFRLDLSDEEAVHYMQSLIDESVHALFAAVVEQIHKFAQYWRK

In the case of `CC(=O)Nc1cc(-c2nc(-c3ccc(Cl)cc3Cl)c(C(N)=O)[nH]2)ccn1` [Compound I-19, 2-(2-acetamidopyridin-4-yl)-4-(2,4-dichlorophenyl)-1H-imidazole-5-carboxamide], the IC50 lay within 1000 to 3000 nM and the “VPS34 Percent Inhibition” value stood at 28.
Regarding `CC(=O)Nc1cc(-c2cn(-c3ccc(Cl)cc3Cl)c(-c3ccn[nH]3)n2)c(C)cn1` [Compound I-16, N-{4-[1-(2,4-dichlorophenyl)-2-(1H-pyrazol-5-yl)-1H-imidazol-4-yl]-5-methylpyridin-2-yl}acetamide], the IC50 lay within 1000 to 3000 nM and the “VPS34 Percent Inhibition” value came to 35.
With `CC(=O)Nc1cc(-c2cn(-c3ccc(Cl)cc3Cl)c(-c3ccn[nH]3)n2)ccn1` [Compound I-10, N-{4-[1-(2,4-dichlorophenyl)-2-(1H-pyrazol-5-yl)-1H-imidazol-4-yl]pyridin-2-yl}acetamide], the IC50 lay in the range of 1000 to 3000 nM and the “VPS34 Percent Inhibition” value was determined as 27.
Regarding `CC(=O)Nc1cc2c(ccn3c(C(N)=O)c(-c4ccc(Cl)cc4Cl)nc23)cn1` [Compound I-24, 9-acetamido-2-(2,4-dichlorophenyl)imidazo[2,1-a][2,6]naphthyridine-3-carboxamide], the IC50 is below 300 nM and the “VPS34 Percent Inhibition” value was above 99.
On the same counts, the results for `CC(=O)Nc1cc(-c2cn(-c3ccccn3)c(-c3ccccc3Cl)n2)ccn1` [Compound I-105, N-{4-[2-(2-chlorophenyl)-1-(pyridin-2-yl)-1H-imidazol-4-yl]pyridin-2-yl}acetamide] are 300 to 1000 nM and 55.
